Measured values: patent publication US20240308984A1, “Jak Inhibitor With High Oral Bioavailability” (TECHNODERMA MEDICINES INC, priority 2021, published 2024)
Where two headings read alike, the source gives them in different places.

Experiment: Oral PK in rats, single oral dose, plasma concentration by LC-MS/MS
Assay type: in vivo, Sprague Dawley (SD) rats
Conditions: SD rats, single oral gavage 5 mg/kg, n=3; for Cmax: 1 mg/mL solution in DMA:30% Solutol HS 15:Saline 10:10:80, plasma; for AUC0-t: sampling up to 24 hours, plasma
Procedure: Biological Description of Oral PK in Rats:
In brief, the compounds were prepared in a solvent [DMA: 30% Solutol HS 15: Saline=10:10:80 (v/v/v)] to form clear solution formulations having a concentration of 1 mg/mL. Each test compound was administered to 3 rats (n=3) in single oral gavage (5 mg/kg). Approximately 150 μL of whole blood was taken from a subclavian vein of each experimental rat before administration and at 0.25, 0.5, 1, 2, 4, 8, 12, and 24 hours after administration, respectively, and was collected into an Eppendorf tube containing EDTA-K2, then 100 μL of the whole blood was added to an Eppendorf tube containing 300 μL of cyanomethane (ACN), mixed and then centrifuged to separate the plasma, and after it was ensured that there was no hemolysis in the samples, the plasma samples were stored in a freezer at −90° C. to −60° C. for analyses of drug concentrations in the samples via LC-MS/MS.
Concentrations of compounds in the plasma samples were tested and analyzed via LC-MS/MS system (API4000: LC-MS-MS-001), 10 μL of the sample was mixed with 100 μL of ACN containing a standard, then 110 μL of water was added and the mixture was oscillated, and finally, 2 μL of the mixed solution was injected into the LC-MS/MS system.

[1] = Sprague-Dawley, rat, read-out: Cmax
[2] = Sprague-Dawley, rat, read-out: AUC0-t

Row | SMILES | Cmax [1] | AUC0-t [2] | Cmax | AUC0-t
1 | Cn1cc(Nc2nccc(-c3ccc(NC(=O)[C@@H]4CC4(F)F)nc3)n2)cn1 [Comparative Example 1, (S)-2,2-difluoro-N-(5-(2-((1-methyl-1H-pyrazol-4-yl)amino)pyrimidin-4-yl)pyridin-2-yl)cycloprop-ane-1-carboxamide] | 116 ng/mL | 891 ng·h/mL |  | 
2 | Cn1cc(Nc2nccc(-c3ccc(NS(=O)(=O)Cc4cccc(C#N)c4)cc3)n2)cn1 [Comparative Example 2] |  |  | 20.2 ng/mL | 47.4 ng·h/mL
3 | Cn1cc(Nc2nccc(-c3ccc(NS(=O)(=O)Cc4cccc(F)c4)cc3)n2)cn1 [Comparative Example 3] |  |  |  | 381 ng·h/mL
4 | CCNC(=O)c1ccc(Nc2nccc(-c3ccc(NC(=O)[C@@H]4CC4(F)F)cc3)n2)cc1C [Comparative Example 4] |  |  | 5.02 ng/mL | 30.7 ng·h/mL
5 | CCNC(=O)c1ccc(Nc2nccc(-c3ccc(NC(=O)[C@@H]4CC4(F)F)cc3)n2)cc1 [Comparative Example 5] |  |  | 16.5 ng/mL | 141 ng·h/mL
6 | Cn1cc(Nc2nccc(-c3ccc(N(COC(=O)C(C)(C)C)C(=O)[C@@H]4CC4(F)F)nc3)n2)cn1 [Example 1, (S)-(2,2-difluoro-N-(5-(2-(((1-methyl-1H-pyrazol-4-yl)amino)pyrimidin-4-yl)pyridin-2-yl)cyclopropane-1-carboxamido)methyl pivalate] |  |  |  | 1670 ng·h/mL
7 | Cn1cc(Nc2nccc(-c3ccc(N(COC(=O)C(C)(C)C)S(=O)(=O)Cc4cccc(C#N)c4)cc3)n2)cn1 [Example 2, (41-(3-cyanophenyl)-N-(4-(2-(((1-methyl-1H-pyrazol-4-yl)amino)pyrimidin-4-yl)phenyl)methyl)sulfonamido)methyl pivalate] | 791 ng/mL | 1580 ng·h/mL |  | 
8 | Cn1cc(Nc2nccc(-c3ccc(N(COC(=O)C(C)(C)C)S(=O)(=O)Cc4cccc(F)c4)cc3)n2)cn1 [Example 3] | 1860 ng/mL | 2890 ng·h/mL |  | 
9 | CCNC(=O)c1ccc(Nc2nccc(-c3ccc(N(COC(=O)C(C)(C)C)C(=O)C4CC4(F)F)cc3)n2)cc1C (stereo not drawn) [Example 4] | 635 ng/mL | 3090 ng·h/mL |  | 
10 | CCNC(=O)c1ccc(Nc2nccc(-c3ccc(N(COC(=O)C(C)(C)C)C(=O)C4CC4(F)F)cc3)n2)cc1 (stereo not drawn) [Example 5] | 689 ng/mL | 2710 ng·h/mL |  | 
